Data on one compound can be found in patent US9837801B2, “Gas-insulated medium or high-voltage electrical apparatus including carbon dioxide, oxygen, and heptafluoro-isobutyronitrile” (Alstom Technology Ltd., priority 2013, dated 2017).

This data set in a line: Toxicity (LC50, lethal concentration 50%). Format: in vivo. The text has this:
In addition, […], toxicity is further reduced by […], which classifies it in the field of gases considered to be “practically non-toxic” (toxicity classification 5, according to the Hodge and Sterner toxicity scale).

Turning to `N#CC(F)(C(F)(F)F)C(F)(F)F` [Heptafluoroisobutyronitrile, 2,3,3,3-tetrafluoro-2-trifluoromethyl propanenitrile], where the note is “humans”, the “specific toxicity for humans” value is listed as “no specific toxicity”. Further, the “LC50 (lethal concentration, 50%)” value (pure heptafluoroisobutyronitrile) is given as “greater than 15,000 ppm”.
